In patent US20250059159A1, “PLPRO INHIBITORS” (SHANGHAI SYNERGY PHARMACEUTICAL SCIENCES CO., LTD., priority 2021, published 2025):

Target: SARS-CoV-2 PLpro (Severe acute respiratory syndrome coronavirus 2 (2019-nCoV) (SARS-CoV-2), UniProt P0DTD1)
Assay: PLpro enzymatic inhibition assay (IC50 value determination)
Format: biochemical
Settings: 60 min preincubation for covalent inhibitors, 10 min for non-covalent, read-out: Inhibition of SARS-CoV-2 PLpro IC50 range

Row | Structure (SMILES) | IC50
1 | C#CCNC(=O)CNC(=O)CN(C1CCN(C(C)c2ccc(OC)cc2Cl)CC1)S(C)(=O)=O (stereo not drawn) [Compound 139, 2-(N-(1-(1-(2-chloro-4-methoxyphenyl)ethyl)piperidin-4-yl)methylsulfonamido)-N-(2-oxo-2-(prop-2-yn-1-ylamino)ethyl)acetamide] | 100 to 1000 nM
2 | C#CCNC(=O)CCNC(=O)CN(C1CCN([C@H](C)c2cccc3ccccc23)CC1)S(C)(=O)=O [Compound 57, (R)-3-(2-(N-(1-(1-(naphthalen-1-yl)ethyl)piperidin-4-yl)methylsulfonamido)acetamido)-N-(prop-2-yn-1-yl)propanamide] | 100 to 1000 nM
3 | C#CCCNC(=O)CNC(=O)CN(C1CCN(C(C)c2cccc3ccccc23)CC1)S(C)(=O)=O (stereo not drawn) [Compound 157, N-(but-3-yn-1-yl)-2-(2-(N-(1-(1-(naphthalen-1-yl)ethyl)piperidin-4-yl)methylsulfonamido)acetamido)acetamide] | 100 to 1000 nM
4 | CC(c1cccc2ccccc12)N1CCC(N(CC(=O)NCC(=O)NC/C=C/S(C)(=O)=O)C(=O)C2CCC2)CC1 (stereo not drawn) [Compound 9, (E)-N-(2-((2-((3-(methylsulfonyl)allyl)amino)-2-oxoethyl)amino)-2-oxoethyl)-N-(1-(1-(naphthalen-1-yl)ethyl)piperidin-4-yl)cyclobutanecarboxamide] | 100 to 1000 nM
5 | C#CCNC(=O)CNC(=O)CN(C1CCN(C(C)c2cccc3ccccc23)CC1)S(=O)(=O)N1CCCC1 (stereo not drawn) [Compound 98, 2-(N-(1-(1-(naphthalen-1-yl)ethyl)piperidin-4-yl)pyrrolidine-1-sulfonamido)-N-(2-oxo-2-(prop-2-yn-1-ylamino)ethyl)acetamide] | < 100 nM
6 | C#CCNC(=O)CNC(=O)CN(C1CCN(C(c2cccc3ccccc23)C(F)(F)F)CC1)S(C)(=O)=O (stereo not drawn) [Compound 100, N-(2-oxo-2-(prop-2-yn-1-ylamino)ethyl)-2-(N-(1-(2,2,2-trifluoro-1-(naphthalen-1-yl)ethyl)piperidin-4-yl)methylsulfonamido)acetamide] | 100 to 1000 nM
7 | CCCC(=O)N(CC(=O)NCC(=O)NC/C=C/C(=O)OC)C1CCN([C@H](C)c2cccc3ccccc23)CC1 [Compound 18, methyl (R,E)-4-(2-(2-(N-(1-(1-(naphthalen-1-yl)ethyl)piperidin-4-yl)butyramido)acetamido)acetamido)but-2-enoate] | < 100 nM
8 | C#CCNC(=S)CNC(=O)CN(C1CCN(C(C)c2cccc3ccccc23)CC1)S(C)(=O)=O (stereo not drawn) [Compound 164, 2-(N-(1-(1-(naphthalen-1-yl)ethyl)piperidin-4-yl)methylsulfonamido)-N-(2-(prop-2-yn-1-ylamino)-2-thioxoethyl)acetamide] | < 100 nM
9 | C#CCNC(=O)CNC(=O)CN(C1CCN([C@@H](C)c2cccc3ccccc23)CC1)S(C)(=O)=O [Compound 89, (S)-2-(N-(1-(1-(naphthalen-1-yl)ethyl)piperidin-4-yl)methylsulfonamido)-N-(2-oxo-2-(prop-2-yn-1-ylamino)ethyl)acetamide] | < 100 nM
10 | C#CC(=O)NNC(=O)CN(C1CCN([C@H](C)c2cccc3ccccc23)CC1)S(C)(=O)=O [Compound 147, (R)—N-(1-(1-(naphthalen-1-yl)ethyl)piperidin-4-yl)-N-(2-oxo-2-(2-propioloylhydrazineyl)ethyl)methanesulfonamide] | < 100 nM
11 | C#CCNC(=O)CNC(=O)CN(C1CCN(C(CO)c2cccc3ccccc23)CC1)S(C)(=O)=O (stereo not drawn) [Compound 143, 2-(N-(1-(2-hydroxy-1-(naphthalen-1-yl)ethyl)piperidin-4-yl)methylsulfonamido)-N-(2-oxo-2-(prop-2-yn-1-ylamino)ethyl)acetamide] | 1000 to 10000 nM
12 | C#CCNC(=O)CNC(=O)CN(C1CCN(c2nc3cc(Cl)ccc3s2)CC1)S(C)(=O)=O [Compound 126, 2-(N-(1-(5-chlorobenzo[d]thiazol-2-yl)piperidin-4-yl)methylsulfonamido)-N-(2-oxo-2-(prop-2-yn-1-ylamino)ethyl)acetamide] | 1000 to 10000 nM
13 | CC(c1cccc2ccccc12)N1CCC(N(CC(=O)NCC(=O)NC/C=C/C(N)=O)S(C)(=O)=O)CC1 (stereo not drawn) [Compound 159, (E)-4-(2-(2-(N-(1-(1-(naphthalen-1-yl)ethyl)piperidin-4-yl)methylsulfonamido)acetamido)acetamido)but-2-enamide] | 100 to 1000 nM
14 | [2H]C([2H])([2H])C(c1cccc2ccccc12)N1CCC(N(CC(=O)NCC(=O)NCC#C)S(C)(=O)=O)CC1 (stereo not drawn) [Compound 151, 2-(N-(1-(1-(naphthalen-1-yl)ethyl-2,2,2-d3)piperidin-4-yl)methylsulfonamido)-N-(2-oxo-2-(prop-2-yn-1-ylamino)ethyl)acetamide] | < 100 nM
15 | C#CCNC(=O)CNC(=O)CN(C1CCN([C@H](C)c2cccc3ccccc23)CC1)S(N)(=O)=O [Compound 145, (R)-2-((1-(1-(naphthalen-1-yl)ethyl)piperidin-4-yl)(sulfamoyl)amino)-N-(2-oxo-2-(prop-2-yn-1-ylamino)ethyl)acetamide 2,2,2-trifluoroacetate] | < 100 nM
16 | CC(c1cccc2ccccc12)N1CCC(N(CC(=O)NCC(=O)NCC#N)S(C)(=O)=O)CC1 (stereo not drawn) [Compound 114, N-(cyanomethyl)-2-(2-(N-(1-(1-(naphthalen-1-yl)ethyl)piperidin-4-yl)methylsulfonamido)acetamido)acetamide] | 1000 to 10000 nM
17 | C#CCNC(=O)CNC(=O)CN(C1CCN(C(C)c2ccc(Cl)cc2Cl)CC1)S(C)(=O)=O (stereo not drawn) [Compound 120, 2-(N-(1-(1-(2,4-dichlorophenyl)ethyl)piperidin-4-yl)methylsulfonamido)-N-(2-oxo-2-(prop-2-yn-1-ylamino)ethyl)acetamide] | 100 to 1000 nM
18 | C#CCNC(=O)CNC(=O)CN(C1CCN(C(C)c2cc(Cl)ccc2Cl)CC1)S(C)(=O)=O (stereo not drawn) [Compound 140, 2-(N-(1-(1-(2,5-dichlorophenyl)ethyl)piperidin-4-yl)methylsulfonamido)-N-(2-oxo-2-(prop-2-yn-1-ylamino)ethyl)acetamide] | 100 to 1000 nM
19 | C#CCNC(=O)CNC(=O)CN(C1CCN(C(C)c2ccccc2Cl)CC1)S(C)(=O)=O (stereo not drawn) [Compound 101, 2-(N-(1-(1-(2-chlorophenyl)ethyl)piperidin-4-yl)methylsulfonamido)-N-(2-oxo-2-(prop-2-yn-1-ylamino)ethyl)acetamide] | < 100 nM
20 | C#CCNC(=O)CNC(=O)CN(C1CCN(C(C)c2cccc3ccccc23)CC1)S(=O)(=O)CCC(=O)OC (stereo not drawn) [Compound 131, methyl 3-(N-(1-(1-(naphthalen-1-yl)ethyl)piperidin-4-yl)-N-(2-oxo-2-((2-oxo-2-(prop-2-yn-1-ylamino)ethyl)amino)ethyl)sulfamoyl)propanoate] | < 100 nM
21 | C#CCNC(=O)CNC(=O)CN(C1CCN(C(C)c2cccc3ccccc23)CC1)S(C)(=O)=O (stereo not drawn) [Compound 97, 2-(N-(1-(1-(naphthalen-1-yl)ethyl)piperidin-4-yl)methylsulfonamido)-N-(2-oxo-2-(prop-2-yn-1-ylamino)ethyl)acetamide] | < 100 nM
22 | COC(=O)/C=C/CNC(=O)CNC(=O)[C@H](CNC(=O)OC(C)(C)C)NC1CCN([C@H](C)c2cccc3ccccc23)CC1 [Compound 27, methyl (S,E)-2,2-dimethyl-7-((1-((R)-1-(naphthalen-1-yl)ethyl)piperidin-4-yl)amino)-4,8,11-trioxo-3-oxa-5,9,12-triazahexadec-14-en-16-oate] | 1000 to 10000 nM
23 | COC(=O)/C=C/CNC(=O)CNC(=O)CN(C(=O)C1CCC1)C1CCN(C(C)c2cccc3ccccc23)CC1 (stereo not drawn) [Compound 6, methyl (E)-4-(2-(2-(N-(1-(1-(naphthalen-1-yl)ethyl)piperidin-4-yl)cyclobutanecarboxamido)acetamido)acetamido)but-2-enoate] | < 100 nM
24 | COC(=O)/C=C/CNC(=O)CNC(=O)CN(C(=O)Cc1ccc2c(c1)OCO2)C1CCN(C(C)c2cccc3ccccc23)CC1 (stereo not drawn) [Compound 1, methyl (E)-4-(2-(2-(2-(benzo[d][1,3]dioxol-5-yl)-N-(1-(1-(naphthalen-1-yl)ethyl)piperidin-4-yl)acetamido)acetamido)acetamido)but-2-enoate] | 100 to 1000 nM
25 | C#CCNC(=O)CNC(=O)CN(C1CCN(C(C)c2ccccc2C(F)(F)F)CC1)S(C)(=O)=O (stereo not drawn) [Compound 102, N-(2-oxo-2-(prop-2-yn-1-ylamino)ethyl)-2-(N-(1-(1-(2-(trifluoromethyl)phenyl)ethyl)piperidin-4-yl)methylsulfonamido)acetamide] | 100 to 1000 nM
26 | COC(=O)/C(C#N)=C/CNC(=O)CNC(=O)CN(C1CCN(C(C)c2cccc3ccccc23)CC1)S(C)(=O)=O (stereo not drawn) [Compound 162, methyl (E)-2-cyano-4-(2-(2-(N-(1-(1-(naphthalen-1-yl)ethyl)piperidin-4-yl)methylsulfonamido)acetamido)acetamido)but-2-enoate] | 100 to 1000 nM
27 | CCC(=O)N(CC(=O)NCC(=O)NC/C=C/C(=O)OC)C1CCN(C(C)c2cccc3ccccc23)CC1 (stereo not drawn) [Compound 15, methyl (E)-4-(2-(2-(N-(1-(1-(naphthalen-1-yl)ethyl)piperidin-4-yl)propionamido)acetamido)acetamido)but-2-enoate] | < 100 nM
28 | C#CC(C)(C)CNC(=O)CNC(=O)CN(C1CCN(C(C)c2cccc3ccccc23)CC1)S(C)(=O)=O (stereo not drawn) [Compound 156, N-(2,2-dimethylbut-3-yn-1-yl)-2-(2-(N-(1-(1-(naphthalen-1-yl)ethyl)piperidin-4-yl)methylsulfonamido)acetamido)acetamide] | 1000 to 10000 nM
29 | COC(=O)/C=C/CNC(=O)CNC(=O)CN(C(=O)C1CCC1)C1CCN([C@H](C)c2cccc3ccccc23)CC1 [Compound 7, methyl (R,E)-4-(2-(2-(N-(1-(1-(naphthalen-1-yl)ethyl)piperidin-4-yl)cyclobutanecarboxamido)acetamido)acetamido)but-2-enoate] | 100 to 1000 nM
30 | COC(=O)/C=C/CNC(=O)CNC(=O)CN(C(=O)CC(F)(F)F)C1CCN(C(C)c2cccc3ccccc23)CC1 (stereo not drawn) [Compound 16, methyl (E)-4-(2-(2-(3,3,3-trifluoro-N-(1-(1-(naphthalen-1-yl)ethyl)piperidin-4-yl)propanamido)acetamido)acetamido)but-2-enoate] | 100 to 1000 nM
